Assays:
[1] = system: SETVI (green foxtail); assay: Pre-emergence herbicidal activity, cool season; assay type: in vivo, Setaria viridis; conditions: GR80 = lowest tested rate (300, 100, 30, 10 g/ha) with 80% or greater inhibition; approx. 14 days after treating; 18/13° C.
Summary of the method: (§1)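 GR80 values derive from percent inhibition relative to untreated plants, read roughly 14 days after sowing and pre-emergence soil-surface treatment (compound in 50:50 acetone/water; rates typically 10, 30, 100, 300 g/ha). Warm-season weeds grew at 30/21° C day/night, cool-season ones at 18/13° C; an asterisk marks activity without reaching 80% at the highest rate.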

[2] = system: SINAR (wild mustard); assay: Pre-emergence herbicidal activity, cool season; assay type: in vivo, Sinapis arvensis; conditions: lowest tested rate with 80% or greater inhibition; rates 300, 100, 30, 10 g/ha; about 14 days
Summary of the method: as §1

[3] = system: LAMPU (purple deadnettle); assay: Pre-emergence herbicidal activity, cool season; assay type: in vivo, Lamium purpureum; conditions: lowest tested rate with 80% or greater inhibition; rates 300, 100, 30, 10 g/ha; about 14 days
Summary of the method: as §1

[4] = system: DATST (jimsonweed); assay: Pre-emergence herbicidal activity, warm season; assay type: in vivo, Datura stramonium; conditions: GR80 = lowest tested rate (300, 100, 30, 10 g/ha) with 80% or greater inhibition; approx. 14 days after treating; 30/21° C.
Procedure: (§2) Tables 5 to 8 summarize results of tests conducted as described below to determine the pre-emergence herbicidal activity, in the form of a GR80 value, of illustrative compounds of this invention. […] Compounds of the invention were typically applied at rates of 300, 100, 30, and 10 g/ha. Where herbicidal activity was evident but 80% inhibition was not achieved at the highest rate tested, an asterisk (*) is shown in the following tables.
(§3) The pre-emergence tests were conducted by the following procedure. Topsoil was sieved to pass through a 1.27 cm screen. Fertilizer was added to the topsoil and the mixture was then sterilized by heating. The topsoil mixture was placed in a pot and compacted to a depth of 1.0 to 1.25 cm from the top of the pot. Seeds of each of several monocotyledonous and dicotyledonous annual plant species were placed on top of the soil. Additional soil was subsequently placed over the seeds to level-fill the pot. A known amount of each test compound dissolved or suspended in an appropriate organic solvent was diluted with a 50:50 mix of acetone and water and applied to the surface of the soil. After treatment the plants were placed in a greenhouse where they received 0.64 cm of overhead irrigation. All subsequent watering consisted of a light overhead mist and/or subirrigation as needed for germination and growth. Tables 5 and 6 below relate to warm season plant species which were placed after pre-emergence treatment in a greenhouse with a 30/21° C. day/night temperature regime. Tables 7 and 8 below relates to cool season plant species placed after pre-emergence treatment in a greenhouse or growth chamber with an 18/13° C. day/night temperature regime.
(§4) Approximately 14 days after planting and treating, the plants were observed and herbicidal efficacy recorded as percent inhibition by comparison with untreated plants.
(§5) The plant species usually regarded as weeds which were utilized in the tests are identified in the tables below according to the following legend, in which “d” indicates a dicotyledonous species and “m” a monocotyledonous species. All monocotyledonous species included in the tests herein are grasses.

[5] = system: SASKR (russian thistle); assay: Pre-emergence herbicidal activity, cool season; assay type: in vivo, Salsola kali; conditions: lowest tested rate with 80% or greater inhibition; rates 300, 100, 30, 10 g/ha; about 14 days
Summary of the method: as §1

[6] = system: POLCO (wild buckwheat); assay: Pre-emergence herbicidal activity, cool season; assay type: in vivo, Polygonum convolvulus; conditions: lowest tested rate with 80% or greater inhibition; rates 300, 100, 30, 10 g/ha; about 14 days
Summary of the method: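 GR80 values, pre-emergence, soil applied at 300, 100, 30, 10 g/ha. Warm regime 30/21 °C: PANMI, DIGSA. Cool regime 18/13 °C: ALOMY, POLCO. Rating ~14 d, % inhibition vs untreated.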

[7] = system: GALAP (catchweed bedstraw); assay: Pre-emergence herbicidal activity, cool season; assay type: in vivo, Galium aparine; conditions: lowest tested rate with 80% or greater inhibition; rates 300, 100, 30, 10 g/ha; about 14 days
Summary of the method: as §1

[8] = system: VERPE (creeping speedwell); assay: Pre-emergence herbicidal activity, cool season; assay type: in vivo, Veronica persicaria; conditions: lowest tested rate with 80% or greater inhibition; rates 300, 100, 30, 10 g/ha; about 14 days
Summary of the method: as §1

[9] = system: STEME (common chickweed); assay: Pre-emergence herbicidal activity, cool season; assay type: in vivo, Stellaria media; conditions: lowest tested rate with 80% or greater inhibition; rates 300, 100, 30, 10 g/ha; about 14 days
Summary of the method: as §1

[10] = system: AGSST (creeping bentgrass); assay: Pre-emergence herbicidal activity, cool season; assay type: in vivo, Agrostis stolonifera; conditions: GR80 = lowest tested rate (300, 100, 30, 10 g/ha) with 80% or greater inhibition; approx. 14 days after treating; 18/13° C.
Summary of the method: as §1

[11] = system: DIGSA (large crabgrass); assay: Pre-emergence herbicidal activity, warm season; assay type: in vivo, Digitaria sanguinalis; conditions: GR80 = lowest tested rate (300, 100, 30, 10 g/ha) with 80% or greater inhibition; approx. 14 days after treating; 30/21° C.
Procedure: as §2, §3, §4, §5

[12] = system: ALOMY (blackgrass); assay: Pre-emergence herbicidal activity, cool season; assay type: in vivo, Alopecurus myosuroides; conditions: GR80 = lowest tested rate (300, 100, 30, 10 g/ha) with 80% or greater inhibition; approx. 14 days after treating; 18/13° C.
Procedure: as §2, §3, §4, §5

[13] = system: LOLMG (annual ryegrass); assay: Pre-emergence herbicidal activity, cool season; assay type: in vivo, Lolium multiflorum; conditions: GR80 = lowest tested rate (300, 100, 30, 10 g/ha) with 80% or greater inhibition; approx. 14 days after treating; 18/13° C.
Procedure: as §2, §3, §4, §5

[14] = system: CHEAL (common lambsquarters); assay: Pre-emergence herbicidal activity, warm season; assay type: in vivo, Chenopodium album; conditions: GR80 = lowest tested rate (300, 100, 30, 10 g/ha) with 80% or greater inhibition; approx. 14 days after treating; 30/21° C.
Procedure: as §2, §3, §4, §5

[15] = system: ABUTH (velvetleaf); assay: Pre-emergence herbicidal activity, warm season; assay type: in vivo, Abutilon theophrasti; conditions: GR80 = lowest tested rate (300, 100, 30, 10 g/ha) with 80% or greater inhibition; approx. 14 days after treating; 30/21° C.
Procedure: as §2, §3, §4, §5

For CCSC(F)(F)S(=O)(=O)c1ncn(C(=O)N(C)Cc2ccccc2)n1 [Example 56], the “Pre-emergence activity (GR80) SETVI” value [1] was 100 g/ha, the “Pre-emergence activity GR80, SINAR” value [2] was “[empty]” and the “Pre-emergence activity GR80, LAMPU” value [3] was “[empty]”. For the same compound, the “Pre-emergence activity (GR80) DATST” value [4] was 300 g/ha, the “Pre-emergence activity GR80, SASKR” value [5] was “[empty]” and the “Pre-emergence activity GR80, POLCO” value [6] was “[empty]”. For the same compound, the “Pre-emergence activity GR80, GALAP” value [7] was “[empty]”, the “Pre-emergence activity GR80, VERPE” value [8] was “[empty]” and the “Pre-emergence activity GR80, STEME” value [9] was “[empty]”. For the same compound, the “Pre-emergence activity (GR80) AGSST” value [10] was 100 g/ha.
In the case of CCSC(F)(F)S(=O)(=O)c1ncn(C(=O)N(C)OC)n1 [Example 57], the “Pre-emergence activity (GR80) SETVI” value [1] is reported as 300 g/ha, the “Pre-emergence activity (GR80) DIGSA” value [11] is reported as 300 g/ha and the “Pre-emergence activity GR80, SINAR” value [2] is reported as 30 g/ha. The “Pre-emergence activity (GR80) ALOMY” value [12] was 300 g/ha, the “Pre-emergence activity GR80, LAMPU” value [3] was “[empty]” and the “Pre-emergence activity GR80, SASKR” value [5] was 30 g/ha. The “Pre-emergence activity GR80, POLCO” value [6] was 100 g/ha, the “Pre-emergence activity (GR80) LOLMG” value [13] was 30 g/ha and the “Pre-emergence activity GR80, GALAP” value [7] was 300 g/ha. For the same compound, the “Pre-emergence activity GR80, VERPE” value [8] was 10 g/ha and the “Pre-emergence activity GR80, STEME” value [9] was 30 g/ha.
In the case of CCSC(F)(F)S(=O)(=O)c1ncn(C(=S)N(CC)CC)n1 [Example 58], the “Pre-emergence activity (GR80) SETVI” value [1] is reported as 300 g/ha, the “Pre-emergence activity GR80, SINAR” value [2] is reported as “[empty]” and the “Pre-emergence activity GR80, LAMPU” value [3] is reported as 300 g/ha. For the same compound, the “Pre-emergence activity (GR80) DATST” value [4] was 300 g/ha, the “Pre-emergence activity GR80, SASKR” value [5] was 300 g/ha and the “Pre-emergence activity (GR80) CHEAL” value [14] was 300 g/ha. For the same compound, the “Pre-emergence activity GR80, POLCO” value [6] was 300 g/ha, the “Pre-emergence activity GR80, GALAP” value [7] was 300 g/ha and the “Pre-emergence activity GR80, VERPE” value [8] was 300 g/ha. The “Pre-emergence activity GR80, STEME” value [9] was 300 g/ha.
For C#CCN(C)C(=O)n1cnc(S(=O)(=O)C(F)(F)C(F)F)n1 [Example 66], the “Pre-emergence activity (GR80) ABUTH” value [15] was 300 g/ha, the “Pre-emergence activity GR80, SINAR” value [2] was “[empty]” and the “Pre-emergence activity GR80, LAMPU” value [3] was “[empty]”. The “Pre-emergence activity GR80, SASKR” value [5] was 300 g/ha, the “Pre-emergence activity GR80, POLCO” value [6] was 300 g/ha and the “Pre-emergence activity GR80, GALAP” value [7] was “[empty]”. For the same compound, the “Pre-emergence activity GR80, VERPE” value [8] was 100 g/ha and the “Pre-emergence activity GR80, STEME” value [9] was “[empty]”.
In the case of CON(C)C(=O)n1cnc(S(=O)(=O)C(F)(F)Cl)n1 [Example 93], the “Pre-emergence activity (GR80) ABUTH” value [15] is reported as 100 g/ha, the “Pre-emergence activity GR80, SINAR” value [2] is reported as “[empty]” and the “Pre-emergence activity GR80, LAMPU” value [3] is reported as “[empty]”. For the same compound, the “Pre-emergence activity GR80, SASKR” value [5] was “[empty]”, the “Pre-emergence activity GR80, POLCO” value [6] was “[empty]” and the “Pre-emergence activity GR80, GALAP” value [7] was “[empty]”. For the same compound, the “Pre-emergence activity GR80, VERPE” value [8] was 300 g/ha and the “Pre-emergence activity GR80, STEME” value [9] was “[empty]”.

Reference: patent publication US6461997B1, “Triazole sulfones having herbicidal activity” (Monsanto Technology LLC, priority 1999, dated 2002)
